We go through 82 molecules from ChEMBL document CHEMBL3988442, “University of Dundee, Small-Polar-MMV Screening Library” (2021).

Experiment [1] in a line: microbe, parasite or virus in culture. As to conditions: Mycobacterium tuberculosis, 96 h, read-out: pIC50 (converted).
A short description of experiment [2]: microbe, parasite or virus in culture. As to conditions: Mycobacterium tuberculosis, 72 h, read-out: pIC50 (converted).

Some results are limits rather than exact numbers.

Turning to `Cc1cc(C(=O)N(C)C[C@H](O)CO)cc(Cl)c1Br`, the figures for the IC50 in experiment [1] and in experiment [2] were 51.9 µM and 403 µM, respectively.

`Cc1nc(CSCCC(=O)Nc2cccc(N3CCNC3=O)c2)cs1`: the IC50 in experiment [1] and in experiment [2] was > 50.1 µM each time.

As to `O=C(c1cccs1)N1CCC2(CC1)CN(c1ccsc1)C(=O)CO2`, the IC50 in experiment [1] and in experiment [2] was > 50.1 µM throughout.

`O=C(CCc1ccc(Br)cc1)NCCc1nnc[nH]1`: the IC50 in experiment [1] and in experiment [2] was > 50.1 µM each time.

As for `CCOc1ncccc1CNC(=O)c1[nH]ncc1Br`, the IC50 in experiment [1] and in experiment [2] was > 501 µM each time.

Turning to `Cc1nc(O)cc(CCNC(=O)C2CC(=O)N(CC(C)C)C2)n1` (centres undefined), the IC50 in experiment [1] and in experiment [2] was > 50.1 µM each time.

`COC(=O)c1ccc(COc2ccccc2CO)o1`: the IC50 in experiment [1] was 250 µM; in experiment [2], 230 µM.

For the molecule `CC(C)c1cc(C(=O)N2CC[C@@H](N)C2)nn1C(C)(C)C`, the IC50 in experiment [1] and in experiment [2] was > 501 µM in each case.

For `O=C1NCC(C(=O)NCCCc2ccc(Cl)cc2)N1` (centres undefined), the IC50 in experiment [1] and in experiment [2] was > 501 µM in each case.

Take `COc1ccc(-c2cccc(-c3ccn(CCN(C)C)n3)c2)nn1`: the IC50 in experiment [1] was 16.3 µM; in experiment [2], 19.9 µM.

Consider `CN(C)C(=O)COC(=O)c1ccc2ccccc2n1`, for which the IC50 in experiment [1] was > 501 µM; in experiment [2], 142 µM.

As for `CNc1cc(CN(C)Cc2cccs2)ccn1`, the IC50 in experiment [1] and in experiment [2] was 276 µM in each case.

As for `CCOCCN1CCn2c(C)nnc2C1`, the IC50 in experiment [1] and in experiment [2] was > 50.1 µM in each case.

Take `CSc1cncc(NCCC(=O)N2CCCC2)n1`: the IC50 is > 501 µM in experiment [1] and 336 µM in experiment [2].

Consider `CN(CC1COc2ccccc2O1)C(=O)C1CCC1` (centres undefined), for which the IC50 in experiment [1] was 173 µM; in experiment [2], 182 µM.

`CC(C)(C)OC(=O)N1CCN(c2ccnc(N)c2)CC1`: the IC50 in experiment [1] and in experiment [2] was > 501 µM throughout.

For `CC(C)c1nnc(CN(C)Cc2ccccc2-c2ccccc2)o1`, the IC50 in experiment [1] is 11.8 µM; in experiment [2] it was 15.8 µM.

For `O=C(CCCc1ccccc1)NCc1ccccn1`, the values for the IC50 in experiment [1] and in experiment [2] were 234 µM and 168 µM, respectively.

For `COCCN(C)CCNC(=O)c1cc2ccccc2[nH]1`, the IC50 in experiment [1] and in experiment [2] was > 501 µM throughout.

In the case of `Cc1nc(CN(C)C(=O)c2nc(C(C)C)cs2)no1`, the IC50 in experiment [1] was 5.83 µM; in experiment [2], 71.2 µM.

Turning to `Cc1cccc(C(=O)NCC(C)N2CCCC2)n1` (centres undefined), the IC50 was > 501 µM in experiment [1] and 306 µM in experiment [2].

Turning to `Cc1cc(N2CCC2c2ccccc2)n2ncnc2n1` (centres undefined), the IC50 was 245 µM in experiment [1] and 162 µM in experiment [2].

With `CC1CN(CCC(=O)NCc2cccs2)CCCO1` (centres undefined), the IC50 in experiment [1] and in experiment [2] was > 501 µM throughout.

With `C[S+]([O-])c1nncn1CCCOc1cccc(Cl)c1` (centres undefined), the IC50 is > 501 µM in experiment [1] and 341 µM in experiment [2].

Regarding `Cc1cc(=O)[nH]c(-n2nc(-c3ccccc3)cc2N)n1`, the IC50 in experiment [1] was > 50.1 µM; in experiment [2] it was 43.5 µM.

With `CC1(c2ncc(CN3CCN(c4ncccn4)CC3)cn2)CCCCO1` (centres undefined), the IC50 in experiment [1] and in experiment [2] was > 50.1 µM throughout.

With `Cc1nc(N2CCCC2)nc2c1CCN(Cc1ccsc1)CC2`, the IC50 is 1.59 µM in experiment [1] and 0.893 µM in experiment [2].

As to `Cc1nn(CCO)c(NCc2cccc(F)c2)c1C`, the IC50 in experiment [1] and in experiment [2] was > 501 µM in each case.

Take `Cc1ccc(S(=O)(=O)CCC(=O)NC(N)=O)cc1`: the IC50 was > 501 µM in experiment [1] and 155 µM in experiment [2].

For the molecule `COc1cccc(C2=NN=C(NC3CC3)SC2)c1`, the IC50 was 111 µM in experiment [1] and 97.4 µM in experiment [2].

As for `CCCNC(=O)c1nnn(-c2ccccc2OC)c1C`, the IC50 in experiment [1] is 6.03 µM; in experiment [2] it was 191 µM.

Take `Cc1nc(C2CCCN2Cc2cc(Cl)c3c(c2)OCCO3)no1` (centres undefined): the results for the IC50 in experiment [1] and in experiment [2] were 15.9 µM and 22.3 µM, respectively.

For `CN(C)c1ccc(C(=O)N2CCCC2c2ccc(Cl)cc2)nn1` (centres undefined), the IC50 in experiment [1] and in experiment [2] was > 50.1 µM throughout.

With `O=C(CCc1ccccc1)N1CCCNCC1`, the values for the IC50 in experiment [1] and in experiment [2] were > 501 µM and 192 µM, respectively.

Turning to `COc1ccc(CNC(=O)CNC2CCCSC2)cc1` (centres undefined), the IC50 is 37.4 µM in experiment [1] and > 501 µM in experiment [2].

`O=C(c1[nH]nc(C2CC2)c1Cl)N1CCCC1`: the IC50 in experiment [1] and in experiment [2] was > 50.1 µM throughout.

Regarding `CC(=O)c1cc(C(=O)NCCSC(F)(F)F)[nH]n1`, the values for the IC50 in experiment [1] and in experiment [2] were 79.5 µM and 274 µM, respectively.

As to `COCCn1nnc(-c2cccc(OC)c2)n1`, the IC50 is 42.2 µM in experiment [1] and 43.7 µM in experiment [2].

Consider `O=C(CSc1ncccc1Br)N1CCCC1`, for which the IC50 in experiment [1] was 70.3 µM; in experiment [2], 5.62 µM.

As to `Cc1cc(CN2CCN(C(=O)CCc3cccs3)CC2)on1`, the IC50 in experiment [1] is 10.5 µM; in experiment [2], 4.03 µM.

Turning to `COc1cccc(CNc2cncc(SC)n2)n1`, the IC50 in experiment [1] was 176 µM; in experiment [2], 139 µM.

For the molecule `COCCNCC(=O)Nc1cccc(CSC)c1`, the figures for the IC50 in experiment [1] and in experiment [2] were > 501 µM and 374 µM, respectively.

`Cc1cnc(N2CCC(O)CC2)c(Br)c1`: the IC50 in experiment [1] and in experiment [2] was > 501 µM each time.

`CCCOc1ccc(CNC(=O)c2cc[nH]n2)cn1`: the results for the IC50 in experiment [1] and in experiment [2] were > 501 µM and 114 µM, respectively.

As for `CCOc1ccc(N(CC(=O)c2ccccc2)C2=NCCCCC2)cc1`, the IC50 was 27.6 µM in experiment [1] and 22.4 µM in experiment [2].

Turning to `CC(CO)(CO)NC(=O)c1cnc(-c2cccs2)s1`, the IC50 in experiment [1] and in experiment [2] was > 501 µM in each case.

With `CN(Cc1cccc(C#N)c1)C(=O)C1CC1`, the figures for the IC50 in experiment [1] and in experiment [2] were 133 µM and > 501 µM, respectively.

For `O=C(c1cc(-c2ccn(CC3CC3)n2)n2ccccc12)N1CCCO1`, the IC50 in experiment [1] was 1.05 µM; in experiment [2], 3.54 µM.

With `NC(CN1CCOCC1)c1ccccc1` (centres undefined), the IC50 in experiment [1] and in experiment [2] was > 501 µM in each case.

As for `N#Cc1cc(Br)cc(S(=O)(=O)NCCCN)c1`, the IC50 in experiment [1] and in experiment [2] was > 501 µM in each case.

Turning to `CC1Cc2ccccc2N(C(=O)c2csnn2)C1` (centres undefined), the IC50 in experiment [1] and in experiment [2] was > 501 µM in each case.

On to `CCN(CC)S(=O)(=O)CC(=O)Nc1ccc(F)c(C)c1`, for which the IC50 in experiment [1] was 265 µM; in experiment [2] it was 252 µM.

With `Fc1ccc(Cn2ncc3c2CN(c2noc(C4CC4)n2)C3)cc1`, the IC50 in experiment [1] was 26.5 µM; in experiment [2], > 50.1 µM.

Consider `CC(C)CCN1CCNC(=O)C1CC(=O)NCCc1cc(O)ncn1` (centres undefined), for which the IC50 in experiment [1] and in experiment [2] was > 50.1 µM in each case.

For the molecule `CN(C)S(=O)(=O)NC(c1ccccc1)c1ccccc1`, the figures for the IC50 in experiment [1] and in experiment [2] were > 501 µM and 195 µM, respectively.

In the case of `NCC(O)c1ccc(Cl)c(F)c1` (centres undefined), the IC50 in experiment [1] is > 501 µM; in experiment [2] it was 252 µM.

`O=S(=O)(NCCNc1ccc(-n2cccc2)nn1)c1ccccc1`: the IC50 in experiment [1] is 16.5 µM; in experiment [2], 15.5 µM.

As to `O=C(NCc1ccc2c(c1)OCO2)N1CCCCC1`, the values for the IC50 in experiment [1] and in experiment [2] were 43.3 µM and 139 µM, respectively.

Regarding `CC(Cn1cccn1)NCc1csc(-c2ccccc2F)n1` (centres undefined), the values for the IC50 in experiment [1] and in experiment [2] were 4.59 µM and 10.4 µM, respectively.

Take `NC1(c2nc(-c3ccccc3)c[nH]2)CCCC1`: the figures for the IC50 in experiment [1] and in experiment [2] were 258 µM and 176 µM, respectively.

As for `CNC(=O)NC(=O)CCN1CCc2ccccc2C1`, the IC50 in experiment [1] is 201 µM; in experiment [2] it was 196 µM.

For the molecule `COC1CCN(C(=O)CCc2ccc(F)cc2F)C1` (centres undefined), the IC50 in experiment [1] was 21.4 µM; in experiment [2], 206 µM.

As to `CCn1c(SCC(N)=O)nnc1-c1cc(Br)cs1`, the IC50 is 249 µM in experiment [1] and 254 µM in experiment [2].

Turning to `COc1ccc([C@@H]2C[C@H](NC(C)=O)C[C@H](Cc3ccccc3)O2)cn1`, the IC50 in experiment [1] was 28.3 µM; in experiment [2] it was > 50.1 µM.

For the molecule `O=C(c1cn(-c2ccccc2)nn1)N1CCOCC(O)C1` (centres undefined), the IC50 in experiment [1] and in experiment [2] was > 50.1 µM in each case.

`CCc1nc(NC2CCCN(C(=O)c3cccs3)C2)c2cnn(C)c2n1` (centres undefined): the IC50 in experiment [1] and in experiment [2] was > 50.1 µM throughout.

Turning to `CN1CCN(S(=O)(=O)N2CCCC2)Cc2ccccc21`, the results for the IC50 in experiment [1] and in experiment [2] were 271 µM and 155 µM, respectively.

`CCNc1cccc(OC)c1`: the IC50 in experiment [1] was 144 µM; in experiment [2] it was 109 µM.

For the molecule `C=C(Br)CN1CCN(CCNC(=O)C2CCC2)CC1`, the IC50 in experiment [1] is > 501 µM; in experiment [2], 278 µM.

Turning to `COc1ccc(CNC(=O)CCC2CCCO2)cn1` (centres undefined), the IC50 in experiment [1] is > 501 µM; in experiment [2], 91.5 µM.

As for `Cc1n[nH]cc1CNCCNc1ncc(Cl)cc1Cl`, the IC50 was > 501 µM in experiment [1] and 82.1 µM in experiment [2].

As to `CC(=O)NCC1CNCCO1` (centres undefined), the IC50 in experiment [1] and in experiment [2] was > 501 µM each time.

On to `Cc1cn(Cc2nc(CC(C)C)nn2-c2ccccn2)c(=O)[nH]c1=O`, for which the IC50 in experiment [1] and in experiment [2] was > 50.1 µM each time.

As for `Cc1ccc(C(N)=O)cc1NCC(C)C`, the IC50 in experiment [1] and in experiment [2] was > 501 µM throughout.

In the case of `COC(=O)CNc1ccccc1`, the IC50 in experiment [1] was 123 µM; in experiment [2], 463 µM.

With `CC(C)Oc1cccc(-c2cnn(CCC(N)=O)c2)c1`, the IC50 in experiment [1] was 382 µM; in experiment [2] it was 264 µM.

For `NCc1nc(-c2ccc(F)cc2)c[nH]1`, the IC50 is > 501 µM in experiment [1] and 222 µM in experiment [2].

Turning to `CC(C)CC(O)CNC(=O)c1cc(F)ccc1F` (centres undefined), the results for the IC50 in experiment [1] and in experiment [2] were 57.2 µM and 238 µM, respectively.

Turning to `Cc1ccc2c(c1)OC(C)CN2C(=O)c1ccccn1` (centres undefined), the IC50 in experiment [1] and in experiment [2] was > 501 µM each time.

On to `CC(C)CC(C)Oc1cc(CNS(N)(=O)=O)ccn1` (centres undefined), for which the IC50 in experiment [1] was 372 µM; in experiment [2], 116 µM.

Consider `COc1ccc(Br)c(CN)c1`, for which the values for the IC50 in experiment [1] and in experiment [2] were 184 µM and 116 µM, respectively.

With `N#Cc1ccc(N2CCC3(CC2)COCCN3Cc2cccnc2)cc1`, the IC50 in experiment [1] and in experiment [2] was > 50.1 µM each time.
